Laboratory results as given in ChEMBL document CHEMBL6087386, “Radioprotective effectiveness of a novel delta-tocotrienol prodrug on mouse hematopoietic system against 60Co gamma-ray irradiation through inducing granulocyte-colony stimulating factor production” (Eur J Med Chem, 2024).
Activity calls are given as the source filed them. No cut-off for these calls is given here.

How the values were obtained:
[1] = test system: Mus musculus; experiment: Induction of G-CSF production in C57BL/6J mouse model at 100 mg/kg, sc measured for 24 hrs by ELISA analysis; type: functional, organism-based
[2] = test system: Mus musculus; experiment: Radioprotective activity in C57BL/6J mouse assessed as survival rate at 100 mg/kg, sc preincubated with compound for 24 hrs followed by total body irradiation with 8.5 Gy and measured after 20 days by Kaplan-meier plot analysis; type: functional; details: light or radiation study, 504 h, time 21 day
[3] = test system: Mus musculus; experiment: Radioprotective activity in C57BL/6J mouse assessed as survival rate at 100 mg/kg, sc preincubated with compound for 24 hrs followed by total body irradiation with 8.5 Gy and measured after 30 days by Kaplan-meier plot analysis; type: functional; details: time 31 day
[4] = Tmax in ICR mouse at 100 mg/kg, iv measured upto 24 hrs by LC-MS/MS analysis; type: ADME, organism-based; details: in vivo
[5] = Tmax in ICR mouse at 100 mg/kg, sc measured upto 24 hrs by LC-MS/MS analysis; type: ADME, organism-based; details: in vivo
[6] = Cmax in ICR mouse at 100 mg/kg, iv measured upto 24 hrs by LC-MS/MS analysis; type: ADME, organism-based; details: in vivo
[7] = Cmax in ICR mouse at 100 mg/kg, sc measured upto 24 hrs by LC-MS/MS analysis; type: ADME, organism-based; details: in vivo
[8] = Half life in ICR mouse at 100 mg/kg, iv measured upto 24 hrs by LC-MS/MS analysis; type: ADME, organism-based; details: in vivo
[9] = Clearance in ICR mouse at 100 mg/kg, iv measured upto 24 hrs by LC-MS/MS analysis; type: ADME, organism-based; details: in vivo
[10] = MRT (0 to t) in ICR mouse at 100 mg/kg, iv measured upto 24 hrs by LC-MS/MS analysis; type: ADME, organism-based; details: in vivo
[11] = MRT (0 to t) in ICR mouse at 100 mg/kg, sc measured upto 24 hrs by LC-MS/MS analysis; type: ADME, organism-based; details: in vivo
[12] = MRT (0 to infinity) in ICR mouse at 100 mg/kg, iv measured upto 24 hrs by LC-MS/MS analysis; type: ADME, organism-based; details: ICR, in vivo
[13] = Volume of distribution at steady state in ICR mouse at 100 mg/kg, iv measured upto 24 hrs by LC-MS/MS analysis; type: ADME, organism-based; details: ICR, in vivo, read-out: Vdss
[14] = Bioavailability in ICR mouse at 100 mg/kg, sc measured upto 24 hrs by LC-MS/MS analysis; type: ADME, organism-based; details: in vivo
[15] = test system: Mus musculus; experiment: Radioprotective activity in C57BL/6J mouse assessed as increase in WBC count at 100 mg/kg, sc preincubated with compound for 24 hrs followed by total body irradiation with 6.5 Gy and measured after 30 days; type: functional, organism-based; details: time 31.0 day
[16] = test system: Mus musculus; experiment: Radioprotective activity in C57BL/6J mouse assessed as increase in neutrophils at 100 mg/kg, sc preincubated with compound for 24 hrs followed by total body irradiation with 6.5 Gy and measured after 30 days; type: functional, organism-based; details: time 31.0 day
[17] = test system: Mus musculus; experiment: Radioprotective activity in C57BL/6J mouse assessed as increase in platelets count at 100 mg/kg, sc preincubated with compound for 24 hrs followed by total body irradiation with 6.5 Gy and measured after 30 days; type: functional, organism-based; details: time 31.0 day
[18] = test system: Mus musculus; experiment: Radioprotective activity in C57BL/6J mouse assessed as increase in RBC count at 100 mg/kg, sc preincubated with compound for 24 hrs followed by total body irradiation with 6.5 Gy and measured after 30 days; type: functional, organism-based; details: time 31.0 day
[19] = test system: Mus musculus; experiment: Radioprotective activity in C57BL/6J mouse assessed as increase in neutrophils at 100 mg/kg, sc preincubated with compound for 24 hrs followed by total body irradiation with 6.5 Gy and measured on day 7; type: functional, organism-based; details: time 8.0 day
[20] = test system: Mus musculus; experiment: Radioprotective activity in C57BL/6J mouse assessed as increase in platelet count at 100 mg/kg, sc preincubated with compound for 24 hrs followed by total body irradiation with 6.5 Gy and measured on day 10; type: functional, organism-based; details: time 11.0 day
[21] = test system: Mus musculus; experiment: Radioprotective activity in C57BL/6J mouse assessed as increase in RBC count at 100 mg/kg, sc preincubated with compound for 24 hrs followed by total body irradiation with 6.5 Gy and measured on day 14; type: functional, organism-based; details: time 15.0 day
[22] = test system: Mus musculus; experiment: Radioprotective activity in C57BL/6J mouse assessed as increase in number of total bone marrow cells at 100 mg/kg, sc preincubated with compound for 24 hrs followed by total body irradiation with 6.5 Gy and measured after 30 days; type: functional, organism-based; details: time 31.0 day
[23] = test system: Mus musculus; experiment: Radioprotective activity in C57BL/6J mouse assessed as increase in number of LK cells at 100 mg/kg, sc preincubated with compound for 24 hrs followed by total body irradiation with 6.5 Gy and measured after 30 days; type: functional, organism-based; details: time 31.0 day
[24] = test system: Mus musculus; experiment: Radioprotective activity in C57BL/6J mouse assessed as increase in number of LSK cells at 100 mg/kg, sc preincubated with compound for 24 hrs followed by total body irradiation with 6.5 Gy and measured after 30 days; type: functional, organism-based; details: time 31.0 day
[25] = test system: Mus musculus; experiment: Radioprotective activity in C57BL/6J mouse assessed as increase in long term hematopoietic stem cell frequency in LSK compartment at 100 mg/kg, sc preincubated with compound for 24 hrs followed by total body irradiation with 6.5 Gy and measured after 30 days; type: functional, organism-based; details: time 31.0 day
[26] = test system: Mus musculus; experiment: Radioprotective activity in C57BL/6J mouse assessed as increase in multipotent progenitor frequency in LSK compartment at 100 mg/kg, sc preincubated with compound for 24 hrs followed by total body irradiation with 6.5 Gy and measured after 30 days; type: functional, organism-based; details: time 31.0 day
[27] = test system: Mus musculus; experiment: Radioprotective activity in C57BL/6J mouse assessed as splenomegaly at 100 mg/kg, sc preincubated with compound for 24 hrs followed by total body irradiation with 6.5 Gy and measured after 10 days; type: functional, organism-based; details: time 11.0 day
[28] = test system: Mus musculus; experiment: Radioprotective activity in C57BL/6J mouse assessed as increase in spleen coefficient at 100 mg/kg, sc preincubated with compound for 24 hrs followed by total body irradiation with 6.5 Gy and measured after 10 days; type: functional, organism-based; details: time 11.0 day

CC(C)=CCC/C(C)=C/CC/C(C)=C/CC[C@]1(C)CCc2cc(OCCO)cc(C)c2O1
Activity [1]: Active | survival at 100 mg/kg [2]: 70% | Activity [3]: 100% | Tmax [4]: 17.3 h | Tmax [5]: 0.67 h | Cmax [6]: 8.15 ng/mL | Cmax [7]: 1.14 ng/mL | half-life [8]: 7.56 h | CL [9]: 6.3815 mL/min/kg | MRT last at 24 h [10]: 0.67 h | MRT last at 24 h [11]: 12 h | MRT inf [12]: 0.92 h | Vd [13]: 0.351 L/kg | F [14]: 8.3% | Activity [15]: Active | Activity [16]: Active | Activity [17]: Active | Activity [18]: Active | Activity [19]: Active | Activity [20]: Active | Activity [21]: Active | Activity [22]: Active | Activity [23]: Active | Activity [24]: Active | Activity [25]: Active | Activity [26]: Active | Activity [27]: Active | Activity [28]: Active
